Consider 39 compounds from patent US9499553B2 (CHUGAI SEIYAKU KABUSHIKI KAISHA, priority 2013, dated 2016).

The structures appear in SMILES notation. pIC50: −log10 of the molar value.

One assay has as its target T1, human NaPi-IIb (Homo sapiens, UniProt O95436).
T1 construct: expressed in transfected cells
T1 sequence (O95436 1-690): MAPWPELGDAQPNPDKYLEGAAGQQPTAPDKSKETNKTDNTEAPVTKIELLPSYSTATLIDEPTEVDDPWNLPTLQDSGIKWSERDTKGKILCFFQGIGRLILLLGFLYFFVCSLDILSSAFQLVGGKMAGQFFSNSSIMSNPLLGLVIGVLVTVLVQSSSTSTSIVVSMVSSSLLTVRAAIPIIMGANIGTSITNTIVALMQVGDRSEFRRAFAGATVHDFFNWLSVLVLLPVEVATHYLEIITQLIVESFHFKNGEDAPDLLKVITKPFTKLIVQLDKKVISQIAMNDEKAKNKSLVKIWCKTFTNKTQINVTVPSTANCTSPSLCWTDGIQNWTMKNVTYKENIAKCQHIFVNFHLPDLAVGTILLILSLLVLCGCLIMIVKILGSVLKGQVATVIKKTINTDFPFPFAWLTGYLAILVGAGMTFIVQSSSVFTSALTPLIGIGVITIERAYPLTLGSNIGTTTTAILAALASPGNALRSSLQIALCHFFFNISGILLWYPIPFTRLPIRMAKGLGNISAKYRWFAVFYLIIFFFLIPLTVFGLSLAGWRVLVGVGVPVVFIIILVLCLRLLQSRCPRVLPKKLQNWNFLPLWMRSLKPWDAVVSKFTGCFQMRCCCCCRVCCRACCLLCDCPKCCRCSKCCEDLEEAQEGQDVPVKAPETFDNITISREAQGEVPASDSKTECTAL
Briefly: Inhibitory effect on 33PO4 uptake into human NaPi-IIb-expressing CHO cells. The class given is cell-based. The conditions noted are these: read-out: IC50. Put shortly:
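Stable human NaPi-IIb CHO line (G418-selected), plated and cultured overnight; ³³PO4 added in buffer A and uptake run at room temperature. Cells washed with ice-cold buffer A, then uptake counted by liquid scintillation.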
Broadly, the pIC50 is the IC50 on a negative log10 scale, so that one unit is a factor of ten. Consider `C[C@]12CCCN1N(Cc1cccc(F)c1F)C(=O)C(C(=O)Nc1ccc(C(F)(F)F)cc1-c1cnc(Cl)nc1)=C2O` [Example 67], for which the negative-log IC50 (pIC50) was 5.70.

For the compound `CN1[C@@H](C(C)(C)C)C(O)=C(C(=O)Nc2ccc(C(F)(F)F)cc2-c2ccc(C(F)(F)F)nc2)C(=O)N1Cc1cccc(F)c1F` [Example 238], the pIC50 was 5.07.

As to `C[C@]12CCCN1N(Cc1cccc(F)c1F)C(=O)C(C(=O)Nc1ccc(C(F)(F)F)cc1-c1cnc(Br)cn1)=C2O` [Example 73], the pIC50 was 5.64.

`CN1N(Cc2ccc(OCCN3CCOCC3)c(F)c2F)C(=O)C(C(=O)Nc2ccc(Cl)cc2-c2cc(C(F)(F)F)ncn2)=C(O)C12CCCCC2` [Example 297]: the pIC50 was 4.74.

As for `CC(C)[C@H]1C(O)=C(C(=O)Nc2ccc(C(F)(F)F)cc2-c2cc(C(F)(F)F)ncn2)C(=O)N(Cc2cccc(F)c2F)N1C` [Example 252], the pIC50 is 5.02.

As to `CN1[C@@H](C(C)(C)C)C(O)=C(C(=O)Nc2cc(F)c(Br)c(F)c2)C(=O)N1Cc1cccc(F)c1F` [Example 240], the pIC50 was 5.04.

On to `C[C@]12CCCN1N(Cc1cc(F)cc(F)c1)C(=O)C(C(=O)Nc1cc(F)c(Br)c(F)c1)=C2O` [Example 190], for which the pIC50 was 5.29.

With `C[C@]12CCCN1N(Cc1cccc(F)c1F)C(=O)C(C(=O)Nc1ccc(Cl)cn1)=C2O` [Example 79], the pIC50 is 5.17.

As to `CN1N(Cc2cccc(F)c2F)C(=O)C(C(=O)Nc2ccc(Br)c(C(F)(F)F)n2)=C(O)C12CCCC2` [Example 263], the pIC50 is 5.52.

Turning to `C[C@]12CCCN1N(Cc1cccc(F)c1F)C(=O)C(C(=O)Nc1ccc(C(F)(F)F)cc1-c1cncc(C(F)(F)F)c1)=C2O` [Example 91], the pIC50 was 4.80.

In the case of `CN1N(Cc2ccc(OCCN3CCOCC3)c(F)c2F)C(=O)C(C(=O)Nc2ccc(C(F)(F)F)cc2-c2ccc(C(F)(F)F)nc2)=C(O)C12CCCC2` [Example 287], the pIC50 was 5.10.

`CN1N(Cc2ccc(OCCN3CCOCC3)c(F)c2F)C(=O)C(C(=O)Nc2ccc(Br)c(C(F)(F)F)n2)=C(O)C12CCCCC2` [Example 298]: the pIC50 is under 4.52.

Take `C[C@]12CCCN1N(Cc1c(F)cc(C#CCN3CCOCC3)cc1F)C(=O)C(C(=O)Nc1ccc(C(F)(F)F)cc1-c1ccc(C(F)(F)F)nc1)=C2O` [Example 132]: the negative-log IC50 (pIC50) is 5.30.

As to `COc1cccc(-c2cc(C(F)(F)F)ccc2NC(=O)C2=C(O)[C@@]3(C)CCCN3N(Cc3ccc(C#CCOCCCO)c(F)c3F)C2=O)c1OC` [Example 127], the pIC50 was 4.75.

For `C[C@]12CCCN1N(Cc1cccc(C#N)c1)C(=O)C(C(=O)Nc1ccc(C(F)(F)F)cc1-c1cc(C(F)(F)F)ncn1)=C2O` [Example 179], the negative logarithm of the IC50 (pIC50) is 4.72.

`C[C@]12CCCN1N(Cc1ccccc1Cl)C(=O)C(C(=O)Nc1cc(F)c(Br)c(F)c1)=C2O` [Example 219]: the pIC50 is 5.38.

For the compound `C[C@]12CCCN1N(Cc1cccc(F)c1F)C(=O)C(C(=O)Nc1ccc(C(F)(F)F)cc1-c1ccc(C(F)(F)F)nc1Br)=C2O` [Example 85], the pIC50 is 5.21.

For the compound `C[C@]12CCCN1N(Cc1cccc(Cl)c1)C(=O)C(C(=O)Nc1cc(F)c(Br)c(F)c1)=C2O` [Example 221], the pIC50 was 5.18.

For the compound `CN1N(Cc2ccc(OCCN3CCOCC3(C)C)c(F)c2F)C(=O)C(C(=O)Nc2ccc(C(F)(F)F)cc2-c2cc(C(F)(F)F)ncn2)=C(O)C12CCC2` [Example 341], the pIC50 is 5.12.

For `C[C@]12CCCN1N(Cc1cccc(F)c1F)C(=O)C(C(=O)Nc1ccc(Br)cc1-c1ccc(Cl)nc1)=C2O` [Example 122, (4aR)—N-[4-Bromo-2-(6-chloropyridin-3-yl)phenyl]-1-[(2,3-difluorophenyl)methyl]-4-hydroxy-4a-methyl-2-oxo-6,7-dihydro-5H-pyrrolo[1,2-b]pyridazine-3-carboxamide], the pIC50 is 5.07.

Consider `CC(C)[C@H]1C(O)=C(C(=O)Nc2cc(F)c(Br)c(F)c2)C(=O)N(Cc2cccc(F)c2F)N1C` [Example 254], for which the pIC50 was 5.01.

Regarding `C[C@]12CCCN1N(Cc1ccc(C#CCCCCC(=O)O)c(F)c1F)C(=O)C(C(=O)Nc1ccc(C(F)(F)F)cc1-c1cncc(C(F)(F)F)c1)=C2O` [Example 119, 7-[4-[[(4aR)-4-Hydroxy-4a-methyl-2-oxo-3-[[4-(trifluoromethyl)-2-[5-(trifluoromethyl)pyridin-3-yl]phenyl]carbamoyl]-6,7-dihydro-5H-pyrrolo[1,2-b]pyridazin-1-yl]methyl]-2,3-difluorophenyl]hept-6-ynoate], the pIC50 was 5.04.

On to `CN1[C@@H](C(C)(C)C)C(O)=C(C(=O)Nc2cnc(C(F)(F)F)nc2-c2ccc(C(F)(F)F)nc2)C(=O)N1Cc1ccc(OCCN2CCOCC2)c(F)c1F` [Example 273], for which the pIC50 is 4.88.

Turning to `COC(=O)c1cccc(CN2C(=O)C(C(=O)Nc3ccc(C(F)(F)F)cc3-c3cc(C(F)(F)F)ncn3)=C(O)[C@@]3(C)CCCN23)c1` [Example 183], the negative-log IC50 (pIC50) is 5.04.

As to `C[C@]12CCCN1N(Cc1ccc(OC[C@H]3CCCO3)c(F)c1F)C(=O)C(C(=O)Nc1ccc(C(F)(F)F)cc1-c1ccc(C(F)(F)F)nc1)=C2O` [Example 160], the pIC50 is 5.14.

For `CN1N(Cc2ccc(OCCN3CCOCC3)c(F)c2F)C(=O)C(C(=O)Nc2ccc(C(F)(F)F)cc2-c2cc(C(F)(F)F)ncn2)=C(O)C12CCC2` [Example 317, 6-[[2,3-Difluoro-4-(2-morpholin-4-ylethoxy)phenyl]methyl]-9-hydroxy-5-methyl-7-oxo-N-[4-(trifluoromethyl)-2-[6-(trifluoromethyl)pyrimidin-4-yl]phenyl]-5,6-diazaspiro[3.5] non-8-ene-8-carboxamide], the pIC50 was 5.02.

`CN1N(Cc2cccc(F)c2F)C(=O)C(C(=O)Nc2ccc(C(F)(F)F)cc2-c2ncnc(C#N)c2Cl)=C(O)C1(C)C` [Example 312]: the pIC50 was 5.20.

For `C[C@]12CCCN1N(Cc1ccc(F)cc1)C(=O)C(C(=O)Nc1ccc(C(F)(F)F)cc1-c1cc(C(F)(F)F)ncn1)=C2O` [Example 208], the pIC50 was 5.18.

For the compound `C[C@]12CCCN1N(Cc1cc(F)c(F)cc1F)C(=O)C(C(=O)Nc1cc(F)c(Br)c(F)c1)=C2O` [Example 194], the pIC50 is 4.71.

The assay is the same for the next values; noted with them: read-out: IC50 against 33PO4 uptake into human NaPi-IIb-expressing cells.
As to `CN(CCOCCOCCOCCOCCOc1ccc(CN2C(=O)C(C(=O)Nc3ccc(C(F)(F)F)cc3-c3cc(C(F)(F)F)ncn3)=C(O)C3(CCCC3)N2C)c(F)c1F)C[C@@H](O)[C@H](O)[C@@H](O)[C@@H](O)CO` [Example 421, 7-[[2,3-Difluoro-4-[2-[2-[2-[2-[2-[methyl-[(2R,3 S,4S,5 S)-2,3,4,5,6-pentahydroxyhexyl]amino]ethoxy]ethoxy]ethoxy]ethoxy]ethoxy]phenyl]methyl]-10-hydroxy-6-methyl-8-oxo-N-[4-(trifluoromethyl)-2-[6-(trifluoromethyl)pyrimidin-4-yl]phenyl]-6,7-diazaspiro[4.5]dec-9-ene-9-carboxamide], the pIC50 is 4.71.

Turning to `CN(CCOCCC(=O)NCC(O)CO)CCOc1ccc(CN2C(=O)C(C(=O)Nc3ccc(C(F)(F)F)cc3-c3cc(C(F)(F)F)ncn3)=C(O)C3(CCCC3)N2C)c(F)c1F` (stereo not drawn) [Example 426], the pIC50 was 4.58.

In the case of `COC(C)(C)CN(C)CCOc1ccc(CN2C(=O)C(C(=O)Nc3ccc(C(F)(F)F)cc3-c3cc(C(F)(F)F)ncn3)=C(O)C3(CCC3)N2C)c(F)c1F` [Example 350], the pIC50 was 4.77.

For `CN(CCO)CCOc1ccc(CN2C(=O)C(C(=O)Nc3ccc(C(F)(F)F)cc3-c3cc(C(F)(F)F)ncn3)=C(O)C3(CCCC3)N2C)c(F)c1F` [Example 373], the pIC50 is 4.63.

As for `CN1N(Cc2ccc(OCCCCOC[C@H](O)CO)c(F)c2F)C(=O)C(C(=O)Nc2ccc(C(F)(F)F)cc2-c2cc(C(F)(F)F)ncn2)=C(O)C12CCC2` [Example 390], the pIC50 was 5.11.

Consider `CN1N(Cc2ccc(OCCCOCCO)c(F)c2F)C(=O)C(C(=O)Nc2ccc(C(F)(F)F)cc2-c2cc(C(F)(F)F)ncn2)=C(O)C12CCCC2` [Example 395], for which the pIC50 was 4.82.

`COCC(C)(C)N(C)CCOc1ccc(CN2C(=O)C(C(=O)Nc3ccc(C(F)(F)F)cc3-c3cc(C(F)(F)F)ncn3)=C(O)C3(CCCC3)N2C)c(F)c1F` [Example 372]: the pIC50 is 4.79.

Turning to `CN(CCOc1ccc(CN2C(=O)C(C(=O)Nc3ccc(C(F)(F)F)cc3-c3cc(C(F)(F)F)ncn3)=C(O)C3(CCCC3)N2C)c(F)c1F)C1CCOCC1` [Example 365], the pIC50 is 4.91.

For `COCCN(C)CCOc1c(-c2cccnc2)cc(CN2C(=O)C(C(=O)Nc3ccc(C(F)(F)F)cc3-c3cc(C(F)(F)F)ncn3)=C(O)C3(CCCC3)N2C)c(F)c1F` [Example 440, 9-[[2,3-Difluoro-4-[2-[2-methoxyethyl(methyl)amino]ethoxy]-5-(3-pyridinyl)phenyl]methyl]-6-hydroxy-10-methyl-8-oxo-N-[4-(trifluoromethyl)-2-[6-(trifluoromethyl)pyrimidin-4-yl]phenyl]-9,10-diazaspiro[4.5]dec-6-ene-7-carboxamide], the pIC50 is 4.65.

As for `CN1N(Cc2ccc(OCCN3CCN(CCOCCO)CC3)c(F)c2F)C(=O)C(C(=O)Nc2ccc(C(F)(F)F)cc2-c2cc(C(F)(F)F)ncn2)=C(O)C12CCC2` [Example 361], the pIC50 was 4.69.
